Laboratory results as given in ChEMBL document CHEMBL3745628, “ent-Abietane-type diterpenoids from the roots of Euphorbia ebracteolata with their inhibitory activities on LPS-induced NO production in RAW 264.7 macrophages” (Bioorg Med Chem Lett, 2016).

What was measured:
RAW264.7 [1] = test: Cytotoxicity against mouse RAW264.7 cells assessed as reduction in cell viability at IC50 by MTT assay; format: cell-based
RAW264.7 [2] = test: Antiinflammatory activity in mouse RAW264.7 cells assessed as inhibition of LPS-induced NO production after 24 hrs by Griess method; format: functional, cell-based; conditions: RAW264.7, 24 h

| IC50 (RAW264.7 [2]) [µM] | SMILES | Activity (RAW264.7 [1]) |
| --- | --- | --- |
| 0.69 | CC1=C2C(=O)C3=C([C@@H](O)[C@H]2OC1=O)[C@]1(C)CCCC(C)(C)[C@H]1CC3 | Non-toxic |
| 5.94 | CC1=C2C=C3CC[C@@H]4C(C)(C)CCC[C@@]4(C)[C@@H]3[C@@H](O)[C@H]2OC1=O | Non-toxic |
| 6.98 | CC1=C2[C@H]3O[C@]34CC[C@@H]3C(C)(C)CCC[C@@]3(C)[C@@H]4[C@@H](O)[C@H]2OC1=O | Non-toxic |
| 33.1 | CC1=C2[C@@H](O)C3=C([C@@H](O)[C@H]2OC1=O)[C@]1(C)CCCC(C)(C)[C@H]1CC3 | Non-toxic |
| 25 | CC1=C2C(=C[C@H]3[C@]4(C)CCCC(C)(C)[C@H]4CC[C@]34O[C@H]24)OC1=O | Non-toxic |
| 1.97 | CO[C@@]12OC(=O)C(C)=C1C=C1CC[C@@H]3C(C)(C)CCC[C@@]3(C)[C@@H]1[C@H]2O | Non-toxic |
| 4.44 | CC1=C2[C@@H](O)[C@@]3(O)CC[C@@H]4C(C)(C)CCC[C@@]4(C)[C@@H]3[C@@H](O)[C@H]2OC1=O | Non-toxic |
| 15.5 | CC1=C2[C@H](OC1=O)[C@H](O)[C@H]1[C@]3(C)CCCC(C)(C)[C@H]3CC[C@@]1(O)[C@H]2O | Non-toxic |
| 14.2 | CC1=C2[C@@H](O)C3=CC[C@@H]4C(C)(C)CCC[C@@]4(C)[C@@H]3[C@@H](O)[C@H]2OC1=O | Non-toxic |
